Reference: ChEMBL document CHEMBL1201862, “PubChem BioAssay data set” (2004)
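Cells were grown in 96-well plates and exposed to each compound for 48 hours at five concentrations; endpoints were interpolated linearly between bracketing concentrations, or set to the highest concentration if not reached. GI50 marks 50% less growth.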 Active and inactive are the calls of the source. No stated cut-off is given here; in the data, active = GI50 up to about 1.1 µM and inactive = higher.

Tests used:
Assay in all cases: NCI anticancer screen, dose series, 48 h
CAKI-1 = test system: CAKI-1
SF-268 = test system: SF-268
IGROV-1 = test system: IGROV-1
SNB-75 = test system: SNB-75
COLO 205 = test system: COLO 205
OVCAR-5 = test system: OVCAR-5
OVCAR-4 = test system: OVCAR-4
NCI-H522 = test system: NCI-H522
786-0 = test system: 786-0
KM12 = test system: KM12
MDA-MB-231 = test system: MDA-MB-231
NCI-H23 = test system: NCI-H23
OVCAR-3 = test system: OVCAR-3
SK-OV-3 = test system: SK-OV-3
SW-620 = test system: SW-620
RPMI-8226 = test system: RPMI-8226
HOP-92 = test system: HOP-92
SNB-19 = test system: SNB-19
A498 = test system: A498
UACC-257 = test system: UACC-257
HCC 2998 = test system: HCC 2998
MDA-MB-435 = test system: MDA-MB-435
NCI-H460 = test system: NCI-H460
BT-549 = test system: BT-549
A549 = test system: A549
SF-539 = test system: SF-539
HCT-116 = test system: HCT-116
EKVX = test system: EKVX
CCRF-CEM = test system: CCRF-CEM
U-251 = test system: U-251
SK-MEL-28 = test system: SK-MEL-28
Hs-578T = test system: Hs-578T
UO-31 = test system: UO-31
SK-MEL-5 = test system: SK-MEL-5
TK-10 = test system: TK-10
T47D = test system: T47D
RXF 393 = test system: RXF 393
HOP-62 = test system: HOP-62
HCT-15 = test system: HCT-15
M14 = test system: M14
ACHN = test system: ACHN
LOX IMVI = test system: LOX IMVI
SN12C = test system: SN12C
K562 = test system: K562
HT-29 = test system: HT-29
DU-145 = test system: DU-145
SF-295 = test system: SF-295
PC-3 = test system: PC-3
MCF7 = test system: MCF7
SK-MEL-2 = test system: SK-MEL-2
Malme-3M = test system: Malme-3M
OVCAR-8 = test system: OVCAR-8
UACC-62 = test system: UACC-62
NCI/ADR-RES = test system: NCI/ADR-RES
SR = test system: SR
NCI-H226 = test system: NCI-H226
MOLT-4 = test system: MOLT-4
MDA-N = test system: MDA-N
HL-60 = test system: HL-60

`COc1ccc2sc(-n3nc4ccccc4c3Nc3nc4ccc(OC)cc4s3)nc2c1` was tested, and the GI50 (CAKI-1) was 1.28 µM (inactive), the GI50 (SF-268) was 5.01 µM (inactive) and the GI50 (IGROV-1) was 2.02 µM (inactive). For the same compound, the GI50 (SNB-75) was 3 µM (inactive), the GI50 (COLO 205) was 14.9 µM (inactive) and the GI50 (OVCAR-5) was 2.88 µM (inactive). For the same compound, the GI50 (OVCAR-4) was 1.86 µM (inactive), the GI50 (NCI-H522) was 2.52 µM (inactive) and the GI50 (786-0) was 1.64 µM (inactive). The GI50 (KM12) was 3.99 µM (inactive), the GI50 (MDA-MB-231) was 2.07 µM (inactive) and the GI50 (NCI-H23) was 1.73 µM (inactive). For the same compound, the GI50 (OVCAR-3) was 1.79 µM (inactive), the GI50 (SK-OV-3) was 1.94 µM (inactive) and the GI50 (SW-620) was 7.5 µM (inactive). The GI50 (RPMI-8226) was 0.887 µM (active), the GI50 (HOP-92) was 3.12 µM (inactive) and the GI50 (SNB-19) was 2.33 µM (inactive). The GI50 (A498) was 0.873 µM (active), the GI50 (UACC-257) was 4.1 µM (inactive) and the GI50 (HCC 2998) was 1.43 µM (inactive). For the same compound, the GI50 (MDA-MB-435) was 3.24 µM (inactive), the GI50 (NCI-H460) was 2.22 µM (inactive) and the GI50 (BT-549) was 2.13 µM (inactive). The GI50 (A549) was 3.77 µM (inactive), the GI50 (SF-539) was 0.92 µM (active) and the GI50 (HCT-116) was 1.8 µM (inactive). For the same compound, the GI50 (EKVX) was 3.52 µM (inactive), the GI50 (CCRF-CEM) was 96.4 µM (inactive) and the GI50 (U-251) was 2.76 µM (inactive). For the same compound, the GI50 (SK-MEL-28) was 7.67 µM (inactive), the GI50 (Hs-578T) was 1.46 µM (inactive) and the GI50 (UO-31) was 7.16 µM (inactive). The GI50 (SK-MEL-5) was 2.26 µM (inactive), the GI50 (TK-10) was 2.62 µM (inactive) and the GI50 (T47D) was 1 µM (active). The GI50 (RXF 393) was 11 µM (inactive), the GI50 (HOP-62) was 1.79 µM (inactive) and the GI50 (HCT-15) was 10.5 µM. The GI50 (M14) was 7.24 µM (inactive), the GI50 (ACHN) was 2.6 µM (inactive) and the GI50 (LOX IMVI) was 5.47 µM (inactive). The GI50 (SN12C) was 3.07 µM (inactive), the GI50 (K562) was 1.59 µM (inactive) and the GI50 (HT-29) was 3.59 µM (inactive). For the same compound, the GI50 (DU-145) was 2.98 µM (inactive), the GI50 (SF-295) was 3.29 µM (inactive) and the GI50 (PC-3) was 2.89 µM (inactive). For the same compound, the GI50 (MCF7) was 6.47 µM (inactive), the GI50 (SK-MEL-2) was 15 µM (inactive) and the GI50 (Malme-3M) was 3.8 µM (inactive). For the same compound, the GI50 (OVCAR-8) was 1.29 µM (inactive), the GI50 (UACC-62) was 2.95 µM (inactive) and the GI50 (NCI/ADR-RES) was 2.26 µM (inactive). For the same compound, the GI50 (SR) was 23.4 µM (inactive) and the GI50 (NCI-H226) was 2.9 µM (inactive).

With `COc1ccc2c(c1)CC[C@@H]1[C@@H]2CC[C@]2(C)C(=O)/C(=C/c3ccc(C#N)cc3)C[C@@H]12` the GI50 (CAKI-1) was > 100 µM (inactive), the GI50 (SF-268) was > 100 µM (inactive) and the GI50 (IGROV-1) was > 100 µM (inactive). For the same compound, the GI50 (SNB-75) was > 100 µM (inactive), the GI50 (COLO 205) was > 100 µM (inactive) and the GI50 (OVCAR-5) was > 100 µM (inactive). For the same compound, the GI50 (OVCAR-4) was 77.1 µM (inactive), the GI50 (NCI-H522) was > 100 µM (inactive) and the GI50 (786-0) was > 100 µM (inactive). The GI50 (KM12) was > 100 µM (inactive), the GI50 (MDA-MB-231) was > 100 µM (inactive) and the GI50 (NCI-H23) was > 100 µM (inactive). For the same compound, the GI50 (SK-OV-3) was > 100 µM (inactive), the GI50 (SW-620) was > 100 µM (inactive) and the GI50 (RPMI-8226) was > 100 µM (inactive). The GI50 (SNB-19) was > 100 µM (inactive), the GI50 (A498) was > 100 µM (inactive) and the GI50 (UACC-257) was > 100 µM (inactive). The GI50 (HCC 2998) was > 100 µM (inactive), the GI50 (MDA-MB-435) was > 100 µM (inactive) and the GI50 (NCI-H460) was > 100 µM (inactive). The GI50 (BT-549) was > 100 µM (inactive), the GI50 (A549) was > 100 µM (inactive) and the GI50 (MOLT-4) was > 100 µM (inactive). The GI50 (SF-539) was > 100 µM (inactive), the GI50 (HCT-116) was > 100 µM (inactive) and the GI50 (EKVX) was > 100 µM (inactive). The GI50 (CCRF-CEM) was > 100 µM (inactive), the GI50 (U-251) was > 100 µM (inactive) and the GI50 (SK-MEL-28) was > 100 µM (inactive). For the same compound, the GI50 (UO-31) was > 100 µM (inactive), the GI50 (SK-MEL-5) was > 100 µM (inactive) and the GI50 (TK-10) was > 100 µM (inactive). For the same compound, the GI50 (T47D) was > 100 µM (inactive), the GI50 (RXF 393) was > 100 µM (inactive) and the GI50 (MDA-N) was > 100 µM (inactive). The GI50 (HOP-62) was 97.1 µM (inactive), the GI50 (HCT-15) was over 100 µM and the GI50 (M14) was > 100 µM (inactive). The GI50 (ACHN) was > 100 µM (inactive), the GI50 (LOX IMVI) was > 100 µM (inactive) and the GI50 (SN12C) was > 100 µM (inactive). The GI50 (K562) was > 100 µM (inactive), the GI50 (DU-145) was > 100 µM (inactive) and the GI50 (SF-295) was 81.3 µM (inactive). The GI50 (PC-3) was > 100 µM (inactive), the GI50 (MCF7) was > 100 µM (inactive) and the GI50 (SK-MEL-2) was > 100 µM (inactive). The GI50 (Malme-3M) was > 100 µM (inactive), the GI50 (OVCAR-8) was > 100 µM (inactive) and the GI50 (UACC-62) was > 100 µM (inactive). The GI50 (NCI/ADR-RES) was > 100 µM (inactive), the GI50 (SR) was > 100 µM (inactive) and the GI50 (NCI-H226) was > 100 µM (inactive).

With `Cn1cnc([N+](=O)[O-])c1Sc1nncc2[nH]cnc12` the GI50 (CAKI-1) was > 100 µM (inactive), the GI50 (IGROV-1) was > 100 µM (inactive) and the GI50 (SNB-75) was > 100 µM (inactive). For the same compound, the GI50 (COLO 205) was > 100 µM (inactive), the GI50 (OVCAR-5) was > 100 µM (inactive) and the GI50 (OVCAR-4) was > 100 µM (inactive). The GI50 (NCI-H522) was > 100 µM (inactive), the GI50 (786-0) was > 100 µM (inactive) and the GI50 (KM12) was > 100 µM (inactive). For the same compound, the GI50 (MDA-MB-231) was > 100 µM (inactive), the GI50 (NCI-H23) was > 100 µM (inactive) and the GI50 (OVCAR-3) was > 100 µM (inactive). For the same compound, the GI50 (SK-OV-3) was > 100 µM (inactive), the GI50 (SW-620) was > 100 µM (inactive) and the GI50 (RPMI-8226) was > 100 µM (inactive). For the same compound, the GI50 (HOP-92) was > 100 µM (inactive), the GI50 (SNB-19) was 7.82 µM (inactive) and the GI50 (A498) was > 100 µM (inactive). For the same compound, the GI50 (UACC-257) was > 100 µM (inactive), the GI50 (HCC 2998) was > 100 µM (inactive) and the GI50 (MDA-MB-435) was > 100 µM (inactive). The GI50 (BT-549) was > 100 µM (inactive), the GI50 (A549) was > 100 µM (inactive) and the GI50 (MOLT-4) was > 100 µM (inactive). For the same compound, the GI50 (SF-539) was > 100 µM (inactive), the GI50 (HCT-116) was > 100 µM (inactive) and the GI50 (EKVX) was > 100 µM (inactive). The GI50 (CCRF-CEM) was > 100 µM (inactive), the GI50 (U-251) was > 100 µM (inactive) and the GI50 (SK-MEL-28) was > 100 µM (inactive). The GI50 (UO-31) was > 100 µM (inactive), the GI50 (SK-MEL-5) was > 100 µM (inactive) and the GI50 (TK-10) was > 100 µM (inactive). The GI50 (T47D) was > 100 µM (inactive), the GI50 (MDA-N) was > 100 µM (inactive) and the GI50 (HOP-62) was > 100 µM (inactive). For the same compound, the GI50 (HCT-15) was over 100 µM, the GI50 (M14) was > 100 µM (inactive) and the GI50 (ACHN) was > 100 µM (inactive). The GI50 (LOX IMVI) was > 100 µM (inactive), the GI50 (SN12C) was > 100 µM (inactive) and the GI50 (K562) was > 100 µM (inactive). The GI50 (HT-29) was > 100 µM (inactive), the GI50 (HL-60) was > 100 µM (inactive) and the GI50 (SF-295) was > 100 µM (inactive). For the same compound, the GI50 (PC-3) was > 100 µM (inactive), the GI50 (MCF7) was > 100 µM (inactive) and the GI50 (SK-MEL-2) was > 100 µM (inactive). For the same compound, the GI50 (Malme-3M) was 28.8 µM (inactive), the GI50 (OVCAR-8) was > 100 µM (inactive) and the GI50 (UACC-62) was > 100 µM (inactive). The GI50 (NCI/ADR-RES) was > 100 µM (inactive), the GI50 (SR) was > 100 µM (inactive) and the GI50 (NCI-H226) was > 100 µM (inactive).
